ChEMBL document CHEMBL1134625 (J Med Chem, 2001)

What was measured:
D(3) dopamine receptor = D(3) dopamine receptor (Homo sapiens, UniProt P35462)
Adenosine receptor A3 = molecular target: T1, Adenosine receptor A3 (Homo sapiens, UniProt P0DMS8)
T1 sequence (P0DMS8 whole entry): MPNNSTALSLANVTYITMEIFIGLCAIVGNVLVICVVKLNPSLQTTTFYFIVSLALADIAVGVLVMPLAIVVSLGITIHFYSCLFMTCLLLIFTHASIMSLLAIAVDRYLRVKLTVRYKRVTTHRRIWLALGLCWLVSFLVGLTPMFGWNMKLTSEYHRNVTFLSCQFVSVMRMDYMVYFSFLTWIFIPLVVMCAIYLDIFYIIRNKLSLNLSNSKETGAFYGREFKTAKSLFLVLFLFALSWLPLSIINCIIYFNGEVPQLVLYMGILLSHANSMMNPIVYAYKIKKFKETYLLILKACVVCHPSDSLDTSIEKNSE

[1] = molecular target: 5-hydroxytryptamine receptor 6 (Homo sapiens, UniProt P50406)
Chain of 5-hydroxytryptamine receptor 6 (P50406 whole entry): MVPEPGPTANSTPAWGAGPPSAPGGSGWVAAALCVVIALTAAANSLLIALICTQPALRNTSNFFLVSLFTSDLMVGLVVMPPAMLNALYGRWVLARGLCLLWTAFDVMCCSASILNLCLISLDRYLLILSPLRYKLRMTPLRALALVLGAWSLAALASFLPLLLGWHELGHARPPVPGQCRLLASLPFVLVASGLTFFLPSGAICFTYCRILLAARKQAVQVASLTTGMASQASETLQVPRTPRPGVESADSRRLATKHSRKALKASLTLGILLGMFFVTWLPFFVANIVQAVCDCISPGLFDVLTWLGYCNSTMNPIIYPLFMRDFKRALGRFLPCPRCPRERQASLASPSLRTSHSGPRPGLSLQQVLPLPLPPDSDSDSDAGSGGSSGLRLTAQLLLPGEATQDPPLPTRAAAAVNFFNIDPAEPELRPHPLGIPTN

[2] = molecular target: Voltage-gated L-type calcium channel (Homo sapiens, UniProt Q13936+Q13698+Q01668+O60840); assay type: protein assay
D(1B) dopamine receptor = D(1B) dopamine receptor (Homo sapiens, UniProt P21918)
Chain of D(1B) dopamine receptor (P21918 whole entry): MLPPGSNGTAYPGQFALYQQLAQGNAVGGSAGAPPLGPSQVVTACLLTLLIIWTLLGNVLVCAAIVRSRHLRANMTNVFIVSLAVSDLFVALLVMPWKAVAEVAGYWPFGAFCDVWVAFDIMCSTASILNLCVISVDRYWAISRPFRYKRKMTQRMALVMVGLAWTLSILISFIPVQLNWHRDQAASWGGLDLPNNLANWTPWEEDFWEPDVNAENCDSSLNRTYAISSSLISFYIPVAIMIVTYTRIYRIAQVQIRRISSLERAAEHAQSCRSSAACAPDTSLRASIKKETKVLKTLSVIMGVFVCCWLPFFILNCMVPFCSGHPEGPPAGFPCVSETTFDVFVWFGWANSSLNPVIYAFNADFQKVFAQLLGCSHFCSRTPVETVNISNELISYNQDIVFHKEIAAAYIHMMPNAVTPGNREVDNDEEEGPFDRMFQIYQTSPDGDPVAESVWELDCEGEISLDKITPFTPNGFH

D(4) dopamine receptor = molecular target: T2, D(4) dopamine receptor (Homo sapiens, UniProt P21917)
T2 sequence (P21917 whole entry): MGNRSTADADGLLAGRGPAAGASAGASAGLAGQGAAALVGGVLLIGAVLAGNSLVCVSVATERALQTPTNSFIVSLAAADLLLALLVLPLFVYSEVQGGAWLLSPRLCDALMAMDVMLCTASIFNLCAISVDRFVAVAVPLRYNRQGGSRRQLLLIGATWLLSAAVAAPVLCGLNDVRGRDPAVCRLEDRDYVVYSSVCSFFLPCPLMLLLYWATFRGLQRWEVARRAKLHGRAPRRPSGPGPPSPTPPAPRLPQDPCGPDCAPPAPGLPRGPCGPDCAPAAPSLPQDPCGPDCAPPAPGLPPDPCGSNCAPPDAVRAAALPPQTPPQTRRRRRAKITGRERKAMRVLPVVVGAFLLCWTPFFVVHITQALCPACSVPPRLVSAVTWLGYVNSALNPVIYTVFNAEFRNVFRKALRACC

Chain of D(3) dopamine receptor (P35462 whole entry): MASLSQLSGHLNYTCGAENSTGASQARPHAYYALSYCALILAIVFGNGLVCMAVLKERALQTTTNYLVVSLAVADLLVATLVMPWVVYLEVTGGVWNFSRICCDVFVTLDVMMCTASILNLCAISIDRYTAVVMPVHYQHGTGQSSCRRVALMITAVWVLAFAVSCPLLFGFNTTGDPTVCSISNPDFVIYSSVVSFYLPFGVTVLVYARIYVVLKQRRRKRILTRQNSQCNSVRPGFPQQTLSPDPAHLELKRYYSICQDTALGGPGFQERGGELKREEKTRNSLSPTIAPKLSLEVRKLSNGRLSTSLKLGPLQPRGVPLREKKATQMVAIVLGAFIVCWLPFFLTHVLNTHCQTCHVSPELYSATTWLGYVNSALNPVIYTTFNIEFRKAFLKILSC

`N#Cc1ccc(CCOC(=O)NC2CCN(CCCC(c3ccc(F)cc3)c3ccc(F)cc3)CC2)cc1` was tested, and the IC50 (D(3) dopamine receptor) was 538 nM, the IC50 (Adenosine receptor A3) was 5980 nM and the IC50 [1] was 427 nM. The IC50 [2] was 284 nM, the IC50 (D(1B) dopamine receptor) was 513 nM and the IC50 (D(4) dopamine receptor) was 543 nM.
